We go through four molecules from ChEMBL document CHEMBL4673179 (RSC Med Chem, 2020).

Data set [1] relates to MDA-MB-231. The data set can be described thus: Cytotoxicity against human MDA-MB-231 cells incubated for 30 mins by CellTiter-Glo luminescent Cell viability assay. The class given is functional, cell-based. To be noted: MDA-MB-231, 0.5 h. In general terms: ATP-based viability assays read luminescence as a measure of living cells.
Data set [2] concerns MCF7. The data set can be described thus: Antitumor activity against human MCF7 cells xenografted in BALB/c nude mouse assessed as tumor growth inhibition at 200 mg/kg, ip administered every other day for 2 weeks relative to control. The class given is functional. To be noted: 336 h, read-out: TGI. For orientation: Xenograft models place foreign cells or tissue in a host animal.

For data set [3], the system named is MCF7. The data set is described as follows: Cytotoxicity against human MCF7 cells incubated for 72 hrs by SRB assay. It is filed as functional, cell-based. To be noted: MCF7, 72 h. (In general: Sulforhodamine B stains cellular protein and so reports cell mass.)
Data set [4] has as its system MDA-MB-231. The data set can be described thus: Synergistic antiproliferative activity against human MDA-MB-231 cells assessed as cell survival rate at 0.1 uM incubated for 72 hrs in presence of alpha-tocopherol measured every 24 hrs by MTT assay relative to control. To be noted: read-out: Survival. It is filed as functional.
A short description of data set [5]: Oral bioavailability in pediatric patient at <= 40 mg/m2. The class given is ADME, organism-based. To be noted: human, in vivo.
The nature of data set [6]: Blood brain barrier permeability in iv dosed human. The class given is ADME, organism-based.
Data set [7] in a line: Drug excretion in patient bile at 10 mg/m2, po by HPLC method. It is filed as ADME, organism-based. To be noted: human, read-out: Drug excretion.
The nature of data set [8]: Aqueous solubility of compound. To be noted: aqueous medium. The class given is physicochemical.
For data set [9], the system named is MCF7. The data set can be described thus: Antiproliferative activity against human MCF7 assessed as reduction in cell number at 10 uM measured after 6 days in presence of 100 uM AICAR by sulforhodamine B assay relative to control. The class given is functional. Also noted: scale not given: the % may be the effect or the level left. To be noted: time 6 day.
Data set [10] can be described thus: Drug metabolism in human assessed as carboxypeptidase-G2 (unknown origin)- mediated drug conversion to DAMPA and glutamate. It is filed as ADME.
For data set [11], the system named is MCF7. The data set is described as follows: Antineoplastic activity against human MCF7 cells incubated for 72 hrs by prestoblue reduction assay. It is filed as functional, cell-based. To be noted: MCF7, 72 h.
For data set [12], the system named is MCF7. The data set is described as follows: Synergistic antitumor activity against human MCF7 cells xenografted in BALB/c nude mouse assessed as tumor growth inhibition at 50 mg/kg, ip administered once per week for 2 weeks in presence of AICA riboside relative to control. The class given is functional. To be noted: 336 h, read-out: TGI.
The target of data set [13] is Albumin (Homo sapiens, UniProt P02768). The data set can be described thus: Binding affinity to human serum albumin by Scatchard plot. It is filed as ADME, cell-free.
Albumin, sequence (P02768 whole entry): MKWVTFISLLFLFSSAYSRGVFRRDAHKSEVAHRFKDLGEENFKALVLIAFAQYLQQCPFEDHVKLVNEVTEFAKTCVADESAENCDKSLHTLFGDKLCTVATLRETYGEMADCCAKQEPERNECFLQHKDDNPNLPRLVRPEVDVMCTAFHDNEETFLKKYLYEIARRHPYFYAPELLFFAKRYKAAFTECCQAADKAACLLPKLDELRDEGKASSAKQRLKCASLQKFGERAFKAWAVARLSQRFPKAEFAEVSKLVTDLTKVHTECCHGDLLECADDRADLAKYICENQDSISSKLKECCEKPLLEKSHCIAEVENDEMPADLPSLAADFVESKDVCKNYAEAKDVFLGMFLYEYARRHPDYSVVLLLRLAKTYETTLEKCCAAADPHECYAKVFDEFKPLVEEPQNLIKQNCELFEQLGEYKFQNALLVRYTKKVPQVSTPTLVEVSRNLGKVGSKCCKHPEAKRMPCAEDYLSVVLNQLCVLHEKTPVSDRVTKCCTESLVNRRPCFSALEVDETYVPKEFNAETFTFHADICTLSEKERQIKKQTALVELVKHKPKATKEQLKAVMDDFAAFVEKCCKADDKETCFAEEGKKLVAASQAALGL
Data set [14] relates to MCF7. The data set can be described thus: Antitumor activity against human MCF7 cells xenografted in BALB/c nude mouse assessed as tumor growth inhibition at 50 mg/kg, ip administered once per week for 2 weeks relative to control. It is filed as functional. To be noted: 336 h, read-out: TGI.
A short description of data set [15]: Oral bioavailability in pediatric patient at > 40 mg/m2. To be noted: human, in vivo. The class given is ADME, organism-based.
Data set [16] in a line: Half life in plasma (unknown origin). The class given is ADME, cell-free.
The subject of data set [17] is MDA-MB-231. The data set can be described thus: Synergistic antiproliferative activity against human MDA-MB-231 cells assessed as cell survival rate at 10 uM incubated for 72 hrs in presence of alpha-tocopherol measured every 24 hrs by MTT assay relative to control. It is filed as functional. To be noted: read-out: Survival.

In brackets after ≈: the same amount, converted by molar mass. *1 amine or outer side, *2 acyl side, *3 side chain or, on linkers, in order; H or OH if unused. Where a SMILES comes first, the peptide text is derived from it. The star is where a group is joined. ξ: configuration not given here. DAMPA = CN(Cc1cnc2nc(N)nc(N)c2n1)c1ccc(C(=O)*)cc1; ξγGlu = O=C(O)C(CCC(=O)[*:2])N[*:1] Some results are limits rather than exact numbers.

Broadly, the EC50 is the concentration at which the effect is half-maximal. In turn, `CC[C@H](C)[C@H](NC(=O)[C@H](C)NC(=O)[C@@H](NC(=O)[C@H](Cc1ccc(O)cc1)NC(=O)CNC(=O)CCC(NC(=O)c1ccc(N(C)Cc2cnc3nc(N)nc(N)c3n2)cc1)C(=O)O)[C@@H](C)O)C(=O)N[C@@H](C)C(=O)N[C@@H](Cc1c[nH]c2ccccc12)C(=O)N[C@H](C(=O)N[C@@H](CCCCN)C(=O)N[C@@H](C)C(=O)N[C@@H](Cc1ccccc1)C(=O)N[C@H](C(=O)N[C@@H](CCCNC(=N)N)C(=O)N[C@@H](CCCCN)C(=O)N[C@@H](CC(C)C)C(=O)N[C@@H](CCCNC(=N)N)C(=O)N[C@@H](CCCCN)C(N)=O)[C@@H](C)CC)C(C)C` (stereo partly drawn) ({DAMPA-ξγGlu}-GYTAIAWVKAFIRKLRK-NH2) registered an EC50 in data set [1] of 3800 nM.

Take `NC(=O)c1ncn([C@@H]2O[C@H](CO)[C@@H](O)[C@H]2O)c1N` [ACADESINE]: in data set [2], the inhibition in vivo at 200 mg/kg worked out at 42.2%.

The term IC50 denotes the point on the concentration scale where inhibition reaches its midpoint. Regarding `COc1cccc2c1C(=O)c1c(O)c3c(c(O)c1C2=O)C[C@@](O)(C(=O)CO)C[C@@H]3O[C@H]1C[C@H](N)[C@@H](O)[C@H](C)O1` [EPIRUBICIN], the half-inhibitory concentration (IC50) in data set [3] turned out to be 550 nM.

Broadly, the bioavailability is the share of a dose that reaches the circulation, judged against a reference dose that is usually intravenous. Usually solubility stands for the dissolved amount per volume that the medium holds. As a reminder, the half-life is the time in which the quantity being followed falls by half. Take `CN(Cc1cnc2nc(N)nc(N)c2n1)c1ccc(C(=O)N[C@@H](CCC(=O)O)C(=O)O)cc1` [METHOTREXATE]: the viability at 0.1 µM in data set [4] was above 60%. Besides, the results for the bioavailability in data set [5] and in [15] were 42% and 18%, respectively. In data set [6], this molecule displayed a pBBB of 1.7%. In data set [7], the dose excreted worked out at 8.7%. The solubility in [8] is 10 µg/mL (≈ 22 µM). Moreover, in data set [9], the Activity stood at 50%. In addition, the Drug metabolism in [10] is reported as above 98%. Besides, the IC50 in data set [11] is 15 nM; in data set [3], above 22000 nM. For the same molecule, the inhibition in vivo at 50 mg/kg stood at 79.9% in data set [12] and 55% in [14]. This molecule came in with a K in data set [13] of 820 M⁻¹. Besides, the half-life in data set [16] is 2 h. The viability at 10 µM in data set [17] worked out at 35%.
